Here are results for two compounds from patent publication US10766914B2, “DNA alkylating agents” (OBI PHARMA, INC., priority 2015, dated 2020).

Data set [1] has as its system H460 NSCLC xenograft. In words: Example 4-F antitumor efficacy, ectopic H460 NSCLC xenograft model. In kind it is in vivo, female nude mice (nu/nu). Particulars: ip, once. The source says: (§1) Specific pathogen-free homozygous female nude mice (nu/nu, Charles River Laboratories) were used. Mice were given food and water ad libitum and housed in microisolator cages. Four to six week old animals were identified by microchips (Locus Technology, Manchester, Md., USA) at the time of the experiments. All animal studies were approved by the Institutional Animal Care and Use Committee at Threshold Pharmaceuticals, Inc.
(§2) All cell lines were from the American Type Culture Collection (ATCC, Rockville, Md., USA).
(§3) Cells were mixed with Matrigel (50% with exception for 30% in the H460) and 0.2 ml per mouse were subcutaneously implanted to the flank area of the animals. When tumor size reached 100-150 250 mm3, mice were randomized into experimental or vehicle groups with 10 mice/group and treatment was started (Day 1). The tested compounds were formulated in 5% DMSO in D5W. The regimens employed in the examples include IP, QD×5/wk (5 days on, 2 days off) as one cycle, for a total of 2 cycles; IP, once; IP, weekly for total 3 weeks; and IV, weekly for 3 weeks. Tumor growth and body weight were measured twice a week. Tumor volume was calculated as (length×width2)/2. Drug efficacy was assessed as Tumor Growth Inhibition (TGI) and Tumor Growth Delay (TGD). TGI was defined as (1−ΔT/ΔC)×100, where ΔT/ΔC presented the ratio of the change in mean (or median, if variation within the group was relatively large) tumor volume of the treated group and of the control group. TGD was calculated as the extra days for the treated tumor to reach 500 mm3 or 1000 mm3 as compared to the control group. Animals were culled when individual tumor size reached over 2000 mm3 or mean tumor volume exceeded 1000 mm3 in the group. Data are expressed as the mean±SEM. One-way analysis of variance with Dunnett post comparison test (GraphPad Prism 4) or two-tailed student's t-test were used for analysis. A P level <0.05 was considered statistically significant.
(§4) The compounds TH-2953 and TH-3040 were tested in a H460 model. The compounds were dosed as follows. A dose-dependent TH-2953 was given IP once, from 6.25 to 100 mg/kg, comparing with daily IP: 5 doses then 2 days off then 5 more doses starting at 100 mm^3 tumors on day 1 (10 animals per group average tumor volume). TH-3040 was administered IP once. The antitumor effects and the safety of administration are graphically illustrated below.

Data set [2] relates to H460 NSCLC xenograft. The experiment in a line: Example 4-G antitumor efficacy, ectopic H460 NSCLC xenograft model. In kind it is in vivo, female nude mice (nu/nu). Particulars: ip, Q7D × 3.
Excerpt: as §1, §2, §3
(§5) The compounds TH-3040 and TH-3045 were tested in a H460 model. The compounds were dosed as follows. A dose-dependent TH-3040 or TH-3045 was given IP weekly for 3 weeks, from 5 to 45 mg/kg starting at 100 mm^3 tumors on day 1 (10 animals per group average tumor volume). The antitumor effects and the safety of administration are graphically illustrated below.

Data set [3] can be described thus: Example 4-G body weight change, H460 xenograft study. In kind it is in vivo, female nude mice (nu/nu). The following applies: ip, Q7D × 3. As to the method:
as §3, §5

The test system of data set [4] is H460 NSCLC xenograft. The experiment in a line: Example 4-H antitumor efficacy, ectopic H460 NSCLC xenograft model. Particulars: ip, Q7D × 3. In kind it is in vivo, female nude mice (nu/nu).
Excerpt: as §1, §2, §3
The compound TH-3040 was tested in a H460 model. The compound was dosed as follows: 5 or 1.5 mg/kg, IP, weekly for 3 weeks at 100 mm^3 tumors on day 1 (10 animals per group average tumor volume), comparing with nab-Paclitaxel. The antitumor effects and the safety of administration are graphically illustrated below.

The nature of data set [5]: Example 4-H body weight change, H460 xenograft study. In kind it is in vivo, female nude mice (nu/nu). Particulars: ip, Q7D × 3. As to the method: as §3, with “A P level <0.05 was considered statistically significant.” left out
In a further data set the test system is H460 cells. The experiment in a line: Proliferation assay in H460 cells (2 hr exposure, AlamarBlue). In kind it is cell-based, human. Particulars: Homo sapiens, NCI-H460, 2 hrs exposure, wash, 70 hrs growth, read-out: IC 50 in proliferation assay in H460 cells. The essentials:
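H460 cells seeded at 4×10^3/well, grown 24 h, then exposed to compound for 2 h at 37 °C. Drug was washed off and cells were regrown 70 h in fresh medium. Viable cells were read by AlamarBlue, and IC50 was taken as the concentration giving 50% growth inhibition.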

A short description of data set [6]: Example 4-F body weight change, H460 xenograft study. Particulars: ip, once. In kind it is in vivo, female nude mice (nu/nu). As to the method: as §3, §4
The target of a further data set is T1, AKR1C3 (Homo sapiens, UniProt P42330).
T1 sequence (P42330 1-323): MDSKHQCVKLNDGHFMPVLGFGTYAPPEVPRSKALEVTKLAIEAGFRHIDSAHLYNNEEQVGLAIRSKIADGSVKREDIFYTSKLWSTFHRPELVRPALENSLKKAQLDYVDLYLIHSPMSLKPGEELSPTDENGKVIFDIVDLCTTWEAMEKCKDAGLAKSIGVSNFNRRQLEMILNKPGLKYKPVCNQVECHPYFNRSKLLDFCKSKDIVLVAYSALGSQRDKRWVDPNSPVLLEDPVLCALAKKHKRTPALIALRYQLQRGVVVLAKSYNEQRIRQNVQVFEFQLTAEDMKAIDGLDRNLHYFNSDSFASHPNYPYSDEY
The following applies: background statement; cited from earlier work.

For data set [7] the following is noted: background statement; cited from earlier work.

For `C[C@H](OP(=O)(N1CC1)N1CC1)c1ccc([N+](=O)[O-])c(Oc2ccc(-c3ccccc3)cc2)c1` [Compound 3040], the “TGD 500” value with H460 NSCLC xenograft [1] (25 mpk) is reported as 17 days; in the data set with H460 NSCLC xenograft [1] (100 mpk), 20 days; in the data set on H460 NSCLC xenograft [2] (5 mpk) it was 40 days; in the data set with H460 NSCLC xenograft [2] (15 mpk) it was 60 days; in the data set with H460 NSCLC xenograft [2] (45 mpk), 66 days. In addition, the “TGD 1000” value is listed as 17 days in the data set with H460 NSCLC xenograft [1] (25 mpk) and 23 days in the data set with H460 NSCLC xenograft [1] (100 mpk). In addition, the TGI worked out at 80.5% with H460 NSCLC xenograft [1] (25 mpk); 93.7% in the data set on H460 NSCLC xenograft [1] (100 mpk); 103.5% in the data set with H460 NSCLC xenograft [2] (5 mpk); 104.3% with H460 NSCLC xenograft [2] (15 mpk); 106.4% in the data set on H460 NSCLC xenograft [2] (45 mpk); 80.6% in the data set with H460 NSCLC xenograft [4] (1.5 mg/kg). For the same compound, the TGI in the data set with H460 NSCLC xenograft [4] (5 mg/kg) is 101.9%. In addition, the results for the “Max BW loss” value in data set [3] (5 mpk), in [3] (15 mpk) and in data set [3] (45 mpk) were 2.5%, 1.0% and 0.0%, respectively. The “TGD500, Days (vs. vehicle)” value in the data set with H460 NSCLC xenograft [4] (1.5 mg/kg) came to 15 days; in the data set on H460 NSCLC xenograft [4] (5 mg/kg), 36 days. Also, the entries for the “TGD1000, Days (vs. vehicle)” value in the data set on H460 NSCLC xenograft [4] (1.5 mg/kg) and in the data set with H460 NSCLC xenograft [4] (5 mg/kg) were 19 days and 41 days, respectively. For the same compound, the “Max. BW loss %” value in data set [5] (1.5 mg/kg) came to 7.2%; in data set [5] (5 mg/kg) it was 5.2%; in data set [6] (25 mpk) it was 1.3%; in data set [6] (100 mpk), 0.0%. The IC50 in the data set with H460 cells was 4 nM.
With `CS(=O)(=O)OCCN(CCBr)c1c(C(=O)NCCOP(=O)(O)O)cc([N+](=O)[O-])cc1[N+](=O)[O-]` [PR 104], the “substrate for AKR1C3” value at AKR1C3 is given as “weak substrate”. In data set [7], the “efficacy in clinical trials” value is “ineffective”.
